US8859512B2, “Anti-viral pyrimidine nucleoside derivatives” (University College Cardiff Consultants Limited, priority 2006, dated 2014)
Values joined by “and” are separate entries in the source; they are usually repeats but may differ in a detail not shown here. Equal values may be shown once. “Also recorded” adds a separate entry of the source.

Key:
[1] = Pilot oral pharmacokinetic study in female mice, plasma Compound 1 by HPLC with fluorescence detection; format: in vivo; conditions: single oral gavage 31.25 mg/kg vs Compound 1 25 mg/kg
[2] = system: thymidine-kinase deficient Oka VZV strain in HEL cells; assay: Viral plaque formation reduction in HEL cells inoculated with VZV Oka strain; format: cell-based, Varicella Zoster virus; conditions: for antiviral activity (in words): in vitro

Row | SMILES | plasma concentrations of Compound 1 compared to mice receiving Compound 1 (in words) [1] | EC50 ([2]; Human alphaherpesvirus 3, HEL, read-out: EC50 in VZV OKA) | antiviral activity (in words) [2]
1 | CCCCCc1ccc(-c2cc3cn(C4CC(O)C(COC(=O)C(N)C(C)C)O4)c(=O)nc3o2)cc1 (stereo not shown) [Compound 5] | much higher | 16 nM and 0.008 µg/mL | active; also recorded: comparable in vitro antiviral activity to Compound 1
2 | CCCCCc1ccc(-c2cc3cn(C4CC(O)C(COC(=O)C(N)C(C)C)O4)c(=O)nc3o2)cc1.Cl (stereo not shown) [Compound 6] |  |  | active
